Measured values reported in patent US20250320401A1, “CORROSION INHIBITOR AND RELATED METHODS OF INHIBITING THE CORROSION OF METAL SURFACES” (Schlumberger Technology Corporation, priority 2024, published 2025).

Legend:
[1] = cited from earlier work
Listeria monocytogenes = settings: in meat products, milk and cottage cheese; cited from earlier work
Escherichia coli = settings: in meat products, milk and cottage cheese; cited from earlier work
[2] = Corrosion rate by weight loss analysis of steel coupons in inhibited hydrochloric acid; settings: 3.57 mmol, 80° C.
Description: The corrosion rates were studied by weight loss analysis. The low carbon steel HS80 tubing were cut into coupons of 29±3 cm^2 surface area using a water cooled band saw to minimize any changes in the properties of the metal that may result from heating. After cutting, the coupons were stamped for identification, glass bead blasted and cleaned in acetone to remove any residue from the machining process. The coupons were then dried, placed in plastic bags and stored in airtight jars to prevent contact with humidity or airborne contaminants. The initial surface area of each test coupon was determined by accurate (to four decimal places) measurement of its geometric dimensions.
Throughout the exposure period, isothermal conditions are maintained (for the present study, the temperature was maintained at 80° C.) and the inhibited acid is continuously stirred using a magnetic stirrer bar. Since the tests were designed to simulate oil well acid stimulation, no effort was made to remove dissolved oxygen from the acid. However, an argon blanket was used to stop any additional intrusion of oxygen during the one hour exposure period. Following each test, the coupons were rinsed in acetone and scrubbed with soap and water to remove residual inhibitor and corrosion deposits. […]

mice [3] = assay: Acute toxicity, intraperitoneal LD50 in mice; format: in vivo; settings: relative to reuterin
Description: (§1) Biotechnologically produced 3-HPA and the 3-HPA derivatives, such as the cyclic dimeric form of FIG. 2 and others described herein, have a high potential as a food preservative and within health care. […] See Fernandez-Cruz M. L, Martín-Cabrejas I., Palacio J. P., Gaya P., Díaz-Navarro C., Navas J. M., Medina M., Arques J. L., “In vitro toxicity of reuterin, a potential food biopreservative,” Food and Chemical Toxicology 96, 2016, 155-159. In contrast for acrolein, the median intraperitoneal (i.p.) lethal dose 50 (LD50) was estimated to be 7 mg/kg by weight (bw) for mice. The acute toxicity of diacetyl after i.p. exposure in rats is low (525 mg/kg bw). […] The acute toxicity LD50 oral for propargyl alcohol is 20 mg/kg for rats. See Propargyl alcohol, MSDS, Aldrich-Sigma. Overall, the typical polymerizable corrosion inhibitors, i.e. acrolein and propargyl alcohol are 36 and 12 times respectively more toxic than reuterin.

mice [4] = settings: cited from earlier work
rats [5] = assay: Acute toxicity, oral LD50 in rats; format: in vivo; settings: relative to reuterin
Description: as §1

rats [6] = settings: cited from earlier work
rats [7] = settings: cited from earlier work; remark: listed apart in the source

## O=CCCO [3-HPA, 3-Hydroxypropionaldehyde]
[1]; i.p.
  i.p. LD50: approximately 250 mg/kg bw
[1]; relative to diacetyl
  toxicity relative to diacetyl: two times more toxic than diacetyl
Listeria monocytogenes
  growth inhibition: inhibit the growth
Escherichia coli
  growth inhibition: inhibit the growth
[2]; 4M HCl
  inhibition efficiency: 89%
[2]; 28% HCl (so in the source)
  inhibition efficiency: 97%

## C=CC=O [Acrolein]
Mice [3]
  times more toxic than reuterin: 36 times
Mice [4]
  median intraperitoneal (i.p.) lethal dose 50 (LD50): 7 mg/kg by weight (bw)

## C#CCO [Propargyl alcohol]
Rats [5]
  times more toxic than reuterin: 12 times
Rats [6]
  acute toxicity LD50 oral: 20 mg/kg

## CC(=O)C(C)=O [diacetyl]
Rats [7]
  acute toxicity after i.p. exposure: 525 mg/kg bw
